Results taken from patent US20070274928A1, “Novel Cyclic Oxygenated Compounds Having Cooling, Fragrance, and Flavor Properties, and Uses Thereof” (priority 2003, published 2007).
Entries after “also recorded” stand apart in the source; their conditions may differ.

Test system: mouth
Assay: Taste evaluation of aqueous solutions by mouth rinse (cooling sensory effect)
Format: in vivo, human
Conditions: 5 ppm solution in purified water, 10 ml rinsed in mouth for 10 sec
Experimental: A 5 ppm solution of 98% pure ketone (10) in purified water was prepared. 10 ml of the solution was tasted by rinsing it in the mouth for 10 sec.
A series of solutions of a mixture of compounds (7) and (8) (approximately 60:40 ratio) were prepared in purified water for subsequent evaluation of cooling sensory effects and taste properties at different concentrations. The solutions were tasted by taking 10 ml of each sample in the mouth, rinsing the mouth for 30 seconds, and discarding the solution by spitting. The cooling sensory effects were recorded as extreme (5), strong (4), moderate (3), weak (2), or none (1), and the ranks were noted over a period of time of 4 hours. Only one sample was tasted per day. All samples were kept in a refrigerator until the taste evaluation and were brought to room temperature before tasting.

Compound | cooling sensory effect
CC(C)=CC1C(=O)C=C(C)C1(C)C (stereo not drawn) [(10)] | no discernible cooling sensory effect

Test system: not listed separately
Assay: Organoleptic evaluation of cooling sensory effect of purified compounds
Format: in vivo, human
Conditions: pure / purified compound

Compound | cooling sensory effect
CC1=CC2(O)OC(C)(C)CC2C1(C)C (stereo not drawn) [compound (7)] | powerful cooling effect; also recorded: very powerful cooling sensory effect
CC1CCC(C(C)CO)C(=O)C1 (stereo not drawn) [(52)] | potent cooling properties
CC1=CC2(C)OC(C)(C)CC2C1(C)C (stereo not drawn) [compound (11)] | devoid of cooling sensory properties
CC1=CC(=O)C(CC(C)(C)O)C1(C)C (stereo not drawn) [compound (8)] | relatively weak cooling effect
CC1CC2(O)OC(C)(C)CC2C1(C)C (stereo not drawn) [compound (15)] | moderate to strong cooling sensory effect
CC(C)=CC1C(=O)C=C(C)C1(C)C (stereo not drawn) [(10)] | completely devoid of a cooling sensory effect
CC1CC(=O)C(CC(C)(C)O)C1(C)C (stereo not drawn) [compound (16)] | weak cooling sensory effect
CC1=C[C@]2(C)OC(=O)CC2C1(C)C (stereo partly drawn) [compound (6)] | lacks the cooling sensory effect
CC1(C)CC2C(=O)CC(C)(O1)C2(C)C (stereo not drawn) [(147)] | no significant cooling sensory effect

Test system: nasal cavity
Assay: Olfactory evaluation of neat sample, cooling sensory effect on smelling
Format: in vivo, human
Conditions: not given
Experimental: 10 ml of 20% NaOH in water were added to the 1 ml of ethanolic solution of 120 mg of the oil resulting from the Grignard reaction, and the whole was stirred at room temperature for 1 hour.
An analytically pure sample of a lactone having formula (129) was obtained by subjecting 30 mg of the fraction 2A sample to column chromatography on silica gel using hexane:ethyl acetate 8:1 as an eluent.

Compound | cooling sensory effect upon smelling the sample
CC1CC2(C)OC(=O)CC2C1(C)C (stereo not drawn) [(129)] | did not exhibit any significant ability to impart the cooling sensation

Test system: tongue
Assay: Application of 5% solution to the tongue
Format: in vivo, human
Conditions: 0.1 ml of a 5% solution applied to the tongue
Experimental: 3.66 grams of compound (5), 10 ml of water, 5 ml of ethanol, and 1.70 g of sodium bicarbonate were stirred together at room temperature until evolution of carbon dioxide ceased (approximately 30 min). The whole was evaporated under reduced pressure at 85° C. until a constant weight was reached. The resulting transparent solid (4.4 g) was sodium ketocampholenate monohydrate.

Compound | duration of tingling-tangy sensation
sodium ketocampholenate monohydrate | about 10 min
